Assay results: US20250320184A1 (SIRONAX LTD., priority 2022, published 2025)

Molecular target: T1, SARM1 (50-724) (Homo sapiens, UniProt Q6SZW1)
T1 sequence (Q6SZW1 50-724): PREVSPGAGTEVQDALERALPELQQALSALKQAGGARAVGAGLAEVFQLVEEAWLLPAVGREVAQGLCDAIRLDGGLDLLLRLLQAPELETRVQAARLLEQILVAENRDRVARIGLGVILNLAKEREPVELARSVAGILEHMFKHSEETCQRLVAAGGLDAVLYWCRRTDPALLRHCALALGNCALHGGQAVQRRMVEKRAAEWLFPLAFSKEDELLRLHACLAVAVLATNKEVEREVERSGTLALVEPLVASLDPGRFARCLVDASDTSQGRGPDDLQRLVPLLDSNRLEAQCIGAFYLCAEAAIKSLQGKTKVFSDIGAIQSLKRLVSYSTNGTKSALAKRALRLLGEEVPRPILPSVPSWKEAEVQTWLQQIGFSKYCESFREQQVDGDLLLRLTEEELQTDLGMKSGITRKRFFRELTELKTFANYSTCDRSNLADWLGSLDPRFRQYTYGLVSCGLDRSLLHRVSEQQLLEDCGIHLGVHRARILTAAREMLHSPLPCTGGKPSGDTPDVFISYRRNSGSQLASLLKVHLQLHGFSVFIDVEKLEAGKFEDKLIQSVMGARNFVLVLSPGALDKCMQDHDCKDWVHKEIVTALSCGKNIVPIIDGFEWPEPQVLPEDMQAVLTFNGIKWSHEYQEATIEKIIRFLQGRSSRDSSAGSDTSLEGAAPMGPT
Assay: biochemical
Experimental: An enzymatic assay was performed in a 384-well plate using Dulbecco's phosphate-buffered saline (PBS) as the reaction buffer. […] The reaction was initiated by adding a mixture of 200 μM nicotinamide mononucleotide (NMN) as activator and 100 μM NAD^+ as substrate. After 1 h of incubation at room temperature, the reaction was terminated with 10 times volume of 70% acetonitrile, then centrifuged at 3800 rpm for 10 min.

Row | Compound | IC50 [nM]
1 | O=c1[nH]ccc2ccc(NS(=O)(=O)c3c(Cl)ccc(Cl)c3Cl)cc12 [Compound 68, 2,3,6-trichloro-N-(1-oxo-1,2-dihydroisoquinolin-7-yl)benzenesulfonamide] | < 100
2 | O=c1[nH]ccc2ccc(NS(=O)(=O)c3ccc(F)c(Cl)c3Cl)cc12 [Compound 69, 2,3-dichloro-4-fluoro-N-(1-oxo-1,2-dihydroisoquinolin-7-yl)benzenesulfonamide] | < 100
3 | O=c1[nH]ccc2ccc(NS(=O)(=O)c3c(F)ccc(Cl)c3Cl)cc12 [Compound 70, 2,3-dichloro-6-fluoro-N-(1-oxo-1,2-dihydroisoquinolin-7-yl)benzenesulfonamide] | < 100
4 | Cc1ccc2ccc(NS(=O)(=O)c3cccc(Cl)c3Cl)cc2n1 [Compound 71, 2,3-dichloro-N-(2-methylquinolin-7-yl)benzenesulfonamide] | 100 to 500
5 | Cc1c2ccc(NS(=O)(=O)c3cccc(Cl)c3Cl)cc2nn1C [Compound 72, 2,3-dichloro-N-(2,3-dimethyl-2H-indazol-6-yl)benzenesulfonamide] | < 100
6 | Cc1n[nH]c2cc(NS(=O)(=O)c3cccc(Cl)c3Cl)cc(F)c12 [Compound 73, 2,3-dichloro-N-(4-fluoro-3-methyl-1H-indazol-6-yl)benzenesulfonamide] | < 100
7 | O=S(=O)(Nc1cc(F)c2cn[nH]c2c1)c1cccc(Cl)c1Cl [Compound 74, 2,3-dichloro-N-(4-fluoro-1H-indazol-6-yl)benzenesulfonamide] | 100 to 500
8 | O=S(=O)(Nc1ccc2c(F)n[nH]c2c1)c1cccc(Cl)c1Cl [Compound 75, 2,3-dichloro-N-(3-fluoro-1H-indazol-6-yl)benzenesulfonamide] | < 100
9 | O=S(=O)(Nc1cc2ccccc2cn1)c1cccc(Cl)c1Cl [Compound 76, 2,3-dichloro-N-(isoquinolin-3-yl)benzenesulfonamide] | 100 to 500
10 | Cn1cnc2cc(NS(=O)(=O)c3cccc(Cl)c3Cl)ccc21 [Compound 77, 2,3-dichloro-N-(1-methyl-1H-benzo[d]imidazol-5-yl)benzenesulfonamide] | 100 to 500
11 | O=S(=O)(Nc1ccc2c(Cl)n[nH]c2c1)c1cccc(Cl)c1Cl [Compound 78, 2,3-dichloro-N-(3-chloro-1H-indazol-6-yl)benzenesulfonamide] | < 100
12 | Cn1ncc2cc(NS(=O)(=O)c3cccc(Cl)c3Cl)ccc21 [Compound 79, 2,3-dichloro-N-(1-methyl-1H-indazol-5-yl)benzenesulfonamide] | 100 to 500
13 | N#CCn1ccc2ccc(NS(=O)(=O)c3cccc(Cl)c3Cl)cc2c1=O [Compound 80, 2,3-dichloro-N-(2-(cyanomethyl)-1-oxo-1,2-dihydroisoquinolin-7-yl)benzenesulfonamide] | 100 to 500
14 | Cc1n[nH]c2cc(NS(=O)(=O)c3c(Cl)ccc(Cl)c3Cl)ccc12 [Compound 81, 2,3,6-trichloro-N-(3-methyl-1H-indazol-6-yl)benzenesulfonamide] | < 100
15 | O=c1[nH]cnc2ccc(NS(=O)(=O)c3c(Cl)ccc(Cl)c3Cl)cc12 [Compound 82, 2,3,6-trichloro-N-(4-oxo-3H-quinazolin-6-yl)benzenesulfonamide] | < 100
16 | O=S(=O)(Nc1cccc(-c2cnccn2)c1)c1cccc(Cl)c1Cl [Compound 83, 2,3-dichloro-N-(3-pyrazin-2-ylphenyl)benzenesulfonamide] | 100 to 500
17 | O=C1CCCc2ccc(NS(=O)(=O)c3cccc(Cl)c3Cl)cc2N1 [Compound 84, 2,3-dichloro-N-(2-oxo-2,3,4,5-tetrahydro-1H-benzo[b]azepin-8-yl)benzenesulfonamide] | < 100
18 | N#Cc1cccc2ccc(NS(=O)(=O)c3cccc(Cl)c3Cl)cc12 [Compound 85, 2,3-dichloro-N-(8-cyanonaphthalen-2-yl)benzenesulfonamide] | 100 to 500
19 | COc1ccc(NS(=O)(=O)c2cccc(Cl)c2Cl)cc1C(N)=O [Compound 86, 5-((2,3-dichlorophenyl)sulfonamido)-2-methoxybenzamide] | 100 to 500
20 | NC(=O)c1cccc2ccc(NS(=O)(=O)c3cccc(Cl)c3Cl)cc12 [Compound 87, 7-((2,3-dichlorophenyl)sulfonamido)-1-naphthamide] | 100 to 500
21 | O=S(=O)(Nc1ccc2c(C3CC3)n[nH]c2c1)c1cccc(Cl)c1Cl [Compound 88, 2,3-dichloro-N-(3-cyclopropyl-1H-indazol-6-yl)benzenesulfonamide] | < 100
22 | COc1cc2cc(NS(=O)(=O)c3cccc(Cl)c3Cl)ccc2cn1 [Compound 89, 2,3-dichloro-N-(3-methoxyisoquinolin-6-yl)benzenesulfonamide] | 100 to 500

Row | Compound | IC50 [nM]
23 | O=c1[nH]cc(Cl)c2ccc(NS(=O)(=O)c3cccc(Cl)c3Cl)cc12 [Compound 91, 2,3-dichloro-N-(4-chloro-1-oxo-1,2-dihydroisoquinolin-7-yl)benzenesulfonamide] | < 100
24 | C[C@H](Nc1ccc2ccnc(O)c2c1)c1cccc(Cl)c1 [Compound 92, (S)-7-((1-(3-chlorophenyl)ethyl)amino)isoquinolin-1-ol] | 100 to 500
25 | Cc1cc(F)cc(C(Nc2ccc3c(c2)C(=O)NCC3)c2cccnc2)c1 (stereo not shown) [Compound 178] | > 1000
26 | Cc1c[nH]c(=O)c2cc(NS(=O)(=O)c3cccc(Cl)c3Cl)ccc12 [Compound 188, 2,3-dichloro-N-(4-methyl-1-oxo-1,2-dihydroisoquinolin-7-yl)benzenesulfonamide] | < 100
27 | CC1CNC(=O)c2cc(NS(=O)(=O)c3cccc(Cl)c3Cl)ccc21 (stereo not shown) [Compound 189] | < 100
28 | Cc1c(Br)cccc1S(=O)(=O)Nc1ccc2cc[nH]c(=O)c2c1 [Compound 191, 3-bromo-2-methyl-N-(1-oxo-1,2-dihydroisoquinolin-7-yl)benzenesulfonamide] | < 100
29 | O=c1[nH]cc(Cl)c2ccc(NS(=O)(=O)c3c(Cl)ccc(Cl)c3Cl)cc12 [Compound 197, 2,3,6-trichloro-N-(4-chloro-1-oxo-1,2-dihydroisoquinolin-7-yl)benzenesulfonamide] | < 100
30 | CC(Nc1ccc2nc[nH]c(=O)c2c1)c1nc(Cl)c(Cl)s1 (stereo not shown) [Compound 202, 6-((1-(4,5-dichlorothiazol-2-yl)ethyl)amino)quinazolin-4(3H)-one] | < 100
31 | CC1(C)C(=O)Nc2cc(NS(=O)(=O)c3cccc(Cl)c3Cl)ccc21 [Compound 204, 2,3-dichloro-N-(3,3-dimethyl-2-oxo-indolin-6-yl)benzenesulfonamide] | < 100
32 | O=C1NCCOc2ccc(NS(=O)(=O)c3cccc(Cl)c3Cl)cc21 [Compound 206, 2,3-dichloro-N-(5-oxo-3,4-dihydro-2H-1,4-benzoxazepin-7-yl)benzenesulfonamide] | 100 to 500
33 | O=C1Nc2cc(NS(=O)(=O)c3cccc(Cl)c3Cl)ccc2C12CC2 [Compound 208, 2,3-dichloro-N-(2′-oxospiro[cyclopropane-1,3′-indolin]-6′-yl)benzenesulfonamide] | < 100
34 | CC1(C)C(=O)Nc2cc(NS(=O)(=O)c3c(Cl)ccc(Cl)c3Cl)ccc21 [Compound 209, 2,3,6-trichloro-N-(3,3-dimethyl-2-oxoindolin-6-yl)benzenesulfonamide] | < 100
35 | CN1C(=O)C(C)(C)c2ccc(NS(=O)(=O)c3cccc(Cl)c3Cl)cc21 [Compound 211, 2,3-dichloro-N-(1,3,3-trimethyl-2-oxoindolin-6-yl)benzenesulfonamide] | < 100
36 | O=C1Nc2cc(NS(=O)(=O)c3cccc(Cl)c3Cl)ccc2C12CCCC2 [Compound 212, 2,3-dichloro-N-(2′-oxospiro[cyclopentane-1,3′-indolin]-6′-yl)benzenesulfonamide] | < 100
37 | O=C1Cc2ccc(NS(=O)(=O)c3cccc(Cl)c3Cl)cc2CN1 [Compound 217, 2,3-dichloro-N-(3-oxo-1,2,3,4-tetrahydroisoquinolin-7-yl)benzenesulfonamide] | 100 to 500
38 | CC1(C)CNc2cc(NS(=O)(=O)c3cccc(Cl)c3Cl)ccc21 [Compound 219, 2,3-dichloro-N-(3,3-dimethylindolin-6-yl)benzenesulfonamide] | < 100
39 | CC(=O)N1CC(C)(C)c2ccc(NS(=O)(=O)c3cccc(Cl)c3Cl)cc21 [Compound 220, N-(1-acetyl-3,3-dimethyl-indolin-6-yl)-2,3-dichloro-benzenesulfonamide] | < 100
40 | O=C1Nc2cc(NS(=O)(=O)c3cccc(Cl)c3Cl)ccc2CO1 [Compound 224, 2,3-dichloro-N-(2-oxo-1,4-dihydro-2H-benzo[d][1,3]oxazin-7-yl)benzenesulfonamide] | < 100
41 | Cn1c(C(N)=O)nc2cc(NS(=O)(=O)c3cccc(Cl)c3Cl)ccc21 [Compound 225, 5-((2,3-dichlorophenyl)sulfonamido)-1-methyl-1H-benzo[d]imidazole-2-carboxamide] | 100 to 500
42 | CC1(C)NC(=O)c2cc(NS(=O)(=O)c3cccc(Cl)c3Cl)ccc21 [Compound 227, 2,3-dichloro-N-(1,1-dimethyl-3-oxoisoindolin-5-yl)benzenesulfonamide] | < 100
43 | CC1C(=O)Nc2cc(NS(=O)(=O)c3cccc(Cl)c3Cl)ccc21 (stereo not shown) [Compound 235] | < 100
